Data from US11213517B2, “Pharmaceutical combination comprising a T-type calcium channel blocker” (IDORSIA PHARMACEUTICALS LTD, priority 2016, dated 2022).
“And” between values parts separate entries of the source, which are not always exact repeats. Identical values can stand only once. Like-named read-outs stand apart in the source and are kept apart here.

Experiments:
[1] = test system: audiogenic seizure-sensitive juvenile DBA/2J mice; experiment: Audiogenic seizure-sensitive juvenile DBA/2J mouse model of generalized tonic-clonic seizures; type: in vivo; set-up: key: 0 none, 1 wild running, 2 clonus, 3 hind-limb tonic extension; conditions: oral gavage, mean ± SEM
Source text: Audiogenic Seizure-Sensitive Juvenile DBA/2J Mouse Model of Generalized Tonic-Clonic Seizures
The inbred DBA/2J mouse strain carries an increased general susceptibility for acute generalized convulsive seizures induced by either pharmacological, electrical or, as juvenile, auditory stimuli. At the age of 17 to 28 days (juvenile), they show tonic-clonic convulsions when exposed to a loud tone.
Male juvenile DBA/2J mice (22-24 days old, body weight between 6.6 and 14.5 grams) were used. Each mouse was placed individually in the exposure chamber, an hemispheric acrylic glass dome (diameter: 50 cm) within a sound-attenuated box. After 60 seconds of habituation, an auditory stimulus of mixed frequency tone (15-20 kHz at 110 dB) was played from a speaker placed on the top center of the dome.
The sound-attenuated box was equipped with lights and a camera system in order to observe and record the behavioral seizure response classified as following: • stage 0, no response • stage 1, wild running • stage 2, clonus • stage 3, tonic extension of the hind limbs.
(§1) Different combination efficacy experiments are performed. […] Each experiment consists of four treatment groups: • 1. Vehicle (10% Polyethylene glycol400 (PEG400)/90% methylcellulose (0.5% in water; MC0.5%)), 3 h before exposure to the auditory stimulus+vehicle, 1 h before exposure to the auditory stimulus; • 2. COMPOUND 1 (in 10% PEG400/90% MC0.5%), 3 h before exposure to the auditory stimulus+vehicle, 1 h before exposure to the auditory stimulus; • 3. Vehicle, 3 h before exposure to the auditory stimulus+AED (in 10% PEG400/90% MC0.5%), 1 h before exposure to the auditory stimulus; and • 4. COMPOUND 1 (in 10% PEG400/90% MC0.5%), 3 h before exposure to the auditory stimulus+AED (in 10% PEG400/90% MC0.5%), 1 h before exposure to the auditory stimulus.

[2] = Plasma and brain concentrations of drugs at the end of the audiogenic seizure experiment (LC-MS); type: in vivo, mouse; conditions: for concentration at 1 h: DBA/2J, mouse, oral; for concentration at 1 h / Brain concentration total: analyte VPA, oral gavage, mean ± SEM
Description: Briefly, blood was sampled from the vena cava caudalis with a syringe pre-filled with EDTA (ethylenediamine tetraacetic acid) as anticoagulant and centrifuged to yield plasma (for 10 minutes, at 4° C. and 5000 rpm (rounds per minute)). Brain was sampled and homogenized into one volume of cold phosphate buffer (pH 7.4). Following extraction with methanol, concentrations of the compound in plasma and brain were determined using liquid chromatography coupled to mass spectrometry.
as §1

[3] = vehicle 3 h + VPA 100 mg/kg 1 h before stimulus

CCCC(CCC)C(=O)O [VPA, 2-propylpentanoic acid]
Seizure stage (maximal seizure stage observed during exposure to auditory stimulus) ([1]; vehicle 3 h + VPA 30 mg/kg 1 h before stimulus): 2.9 ± 0.1
Seizure stage (maximal seizure stage observed during exposure to auditory stimulus) [1, 3]: 2.7 ± 0.2 and 2.8 ± 0.2
Seizure stage (maximal seizure stage observed during exposure to auditory stimulus) ([1]; vehicle 3 h + VPA 100 mg/kg 1 h before stimulus, listed as valproic acid): 3
plasma and brain concentrations after administration of the compounds alone or in combination ([2]; COMPOUND 1 and valproic acid, juvenile DBA/2J mice): similar
concentration at 1 h ([2]; brain, 30 mg/kg, vehicle 3 h + VPA 30 mg/kg 1 h before stimulus, read-out: Brain concentration total): 1260 ± 399 ng/g
concentration at 1 h ([2]; brain, 100 mg/kg, vehicle 3 h + VPA 100 mg/kg 1 h before stimulus, read-out: Brain concentration total): 10100 ± 2040 ng/g
concentration at 1 h ([2]; brain, 200 mg/kg, vehicle 3 h + VPA 200 mg/kg 1 h before stimulus, read-out: Brain concentration total): 44200 ± 4090 ng/g
concentration at 1 h ([2]; brain, COMPOUND 1 10 mg/kg 3 h + VPA 100 mg/kg 1 h before stimulus, read-out: Brain concentration total): 14600 ± 2910 ng/g
concentration at 1 h ([2]; brain, COMPOUND 1 10 mg/kg 3 h + VPA 200 mg/kg 1 h before stimulus, read-out: Brain concentration total): 34700 ± 4440 ng/g
concentration at 1 h ([2]; brain, COMPOUND 1 30 mg/kg 3 h + VPA 30 mg/kg 1 h before stimulus, read-out: Brain concentration total): 1010 ± 117 ng/g
concentration at 1 h ([2]; brain, COMPOUND 1 30 mg/kg 3 h + VPA 100 mg/kg 1 h before stimulus, read-out: Brain concentration total): 5950 ± 946 ng/g
concentration at 1 h ([2]; brain, COMPOUND 1 30 mg/kg 3 h + VPA 200 mg/kg 1 h before stimulus, read-out: Brain concentration total): 27000 ± 6540 ng/g
concentration at 1 h ([2]; plasma, 30 mg/kg, vehicle 3 h + VPA 30 mg/kg 1 h before stimulus, read-out: Plasma concentration total): 23 ± 3.61 µg/mL
concentration at 1 h ([2]; plasma, 100 mg/kg, vehicle 3 h + VPA 100 mg/kg 1 h before stimulus, read-out: Plasma concentration total): 53.7 ± 4.04 µg/mL
concentration at 1 h ([2]; plasma, 200 mg/kg, vehicle 3 h + VPA 200 mg/kg 1 h before stimulus, read-out: Plasma concentration total): 133 ± 10.7 µg/mL
concentration at 1 h ([2]; plasma, COMPOUND 1 10 mg/kg 3 h + VPA 100 mg/kg 1 h before stimulus, read-out: Plasma concentration total): 57.3 ± 3.76 µg/mL
concentration at 1 h ([2]; plasma, COMPOUND 1 10 mg/kg 3 h + VPA 200 mg/kg 1 h before stimulus, read-out: Plasma concentration total): 123 ± 11.7 µg/mL
concentration at 1 h ([2]; plasma, COMPOUND 1 30 mg/kg 3 h + VPA 30 mg/kg 1 h before stimulus, read-out: Plasma concentration total): 19.9 ± 1.65 µg/mL
concentration at 1 h ([2]; plasma, COMPOUND 1 30 mg/kg 3 h + VPA 100 mg/kg 1 h before stimulus, read-out: Plasma concentration total): 63.4 ± 3.21 µg/mL
concentration at 1 h ([2]; plasma, COMPOUND 1 30 mg/kg 3 h + VPA 200 mg/kg 1 h before stimulus, read-out: Plasma concentration total): 110 ± 11.4 µg/mL
Brain concentration total [2, 3]: 9278 ± 2535 ng/g
Brain concentration total ([2]; vehicle 3 h + VPA 200 mg/kg 1 h before stimulus): 24746 ± 3564 ng/g
